# Test results as given in patent publication US9637529B2, “Medicament for atrophy treatment or increasing cell growth” (SIMU TRADE CONSULTING GMBH & CO. LEASING KG, priority 2012, dated 2017).
# What was measured:
# [1] = system: rat cardiomyocytes (H9c2); assay: AlamarBlue proliferation assay, H9c2 cells; format: cell-based
# Description: FIG. 3: Effect of SERF2 on Proliferation of H9c2 cells is dose-dependent. Proliferation assay was performed essentially as in FIG. 2. Incubation time was 24 hrs, added SERF2 concentrations ranged from 20 to 1.25 μg/ml.
# (§1) FIG. 5: Kinetics of the Effect of SERF2 on Proliferation of rat cardiomyocytes (H9c2). Cells stimulated with SERF2 (green line) responded with proliferation and reached max. proliferation rate after 6 days. Proliferation assay was performed essentially as in FIG. 2. Incubation times were 24, 48, 72 and 144 hrs, the SERF2 concentration added was 5 μg/ml.
# Rat derived embryonic cardiomyocytes H9c2 (ATTC CRL-1446) and embryonic skeletal muscle cells L6 (ATTC CRL-1458) were cultured in Dulbecco's Modified Eagle Medium high glucose (DMEM, Sigma Aldrich) containing 10% v/v fetal calf serum (FCS, PAA) and 1% v/v Penicillin/Streptamycin (Gibco). Cells were grown in 80 cm2 cell culture flasks (NUNC) using 15 ml growth medium. Both cell lines were incubated under humidified atmosphere at +37° C. and 5% v/v CO^2. Cells were splitted when a confluency of approximately 90% was reached. Usually a splitting ratio of 1:5 or 1:10 was applied. For this purpose, supernatant was removed and cells were washed using 10 ml Dulbecco's Phosphate Buffered Saline (DPBS, Gibco). Cells were harvested by addition of 3 ml Trypsin/EDTA (Gibco) followed by an incubation of 5 to 10 min at +37° C. Successful detachment of cells was checked under the microscope (IMT-2, Olympus) and 7 ml growth medium were added. Cell number and viability were determined by trypanblue exclusion performed by using an automated cell analyzer (CEDEX, Innovatis). For this, 950 μl DPBS and 50 μl cell-suspension were mixed and used for analysis.
# Proliferation was measured using the AlamarBlue™ assay according to the manufacturer's protocol. Briefly, 1×10^4 cells were seeded per well containing 100 μl growth medium. […] Fluorescence (Ex. 570 nm, Em. 585 nm) was measured using a Varioskan Flash multi-plate reader (Thermo Scientific). Data were evaluated using Microsoft Excel and GraphPad Prism V4.
# [2] = system: rat skeletal muscle cells (L6); assay: AlamarBlue proliferation assay, L6 cells; format: cell-based
# Description: FIG. 2: Effect of SERF2 on Proliferation of rat skeletal muscle cells (L6). 1×10^4 L6 cells were seeded per well containing 100 μl growth medium. Cells were incubated over night at +37° C., 5% v/v CO^2 and humidified atmosphere. Prior performing the assay, viability of cells was checked under the microscope. Cells were washed three times with 100 μl DPBS per well. SERF2 was diluted […]) in DMEM and 100 μl/well were added to the cells. Finally, cells were incubated at +37° C. for various time points. Subsequently 10 μl/well AlamarBlue™ reagent (Invitrogen) was added. Plates were incubated for one hour at +37° C. Fluorescence (Ex. 570 nm, Em. 585 nm) was measured using a Varioskan Flash multi-plate reader (Thermo Scientific). Obtained Data were evaluated using Microsoft Excel and Graph Pad Prism V4.
# as §1, with “6:” for “5:”, “skeletal muscle cells (L6).” for “cardiomyocytes (H9c2).”, “reached a” for “reached”
# Rat derived embryonic cardiomyocytes H9c2 (ATTC CRL-1446) and embryonic skeletal muscle cells L6 (ATTC CRL-1458) were cultured in Dulbecco's Modified Eagle Medium high glucose (DMEM, Sigma Aldrich) containing 10% v/v fetal calf serum (FCS, PAA) and 1% v/v Penicillin/Streptamycin (Gibco). Cells were grown in 80 cm2 cell culture flasks (NUNC) using 15 ml growth medium. Both cell lines were incubated under humidified atmosphere at +37° C. and 5% v/v CO^2. Cells were splitted when a confluency of approximately 90% was reached. […] Cell number and viability were determined by trypanblue exclusion performed by using an automated cell analyzer (CEDEX, Innovatis). […]
# Proliferation was measured using the AlamarBlue™ assay according to the manufacturer's protocol. […] Fluorescence (Ex. 570 nm, Em. 585 nm) was measured using a Varioskan Flash multi-plate reader (Thermo Scientific). Data were evaluated using Microsoft Excel and GraphPad Prism V4.
# [3] = SERF2 5 μg/ml, incubation 24, 48, 72 and 144 hrs
substance,measurement,setting,value
"SERF2: Small EDRK-rich factor 2, mature protein of 59 amino acids (SEQ ID NO: 1) (MTRGNQRELARQKNMKKQSDSVKGKRRDDGLSAAARKQRDSEIMQQKQKKANEKKEEPK; homo sapiens)",proliferative effect on H9c2 cells,"[1]; 24 h treatment, SERF2 20 to 1.25 μg/ml",proliferative effect in a dose-dependent manner
same,"SERF2 concentration at which proliferative effect peaks, H9c2",[1]; AlamarBlue,5 µg/mL
same,"time to max. proliferation rate, H9c2",[1]; [3],6 days
same,proliferative effect on L6 rat skeletal muscle cells,"[2]; AlamarBlue, single treatment, read daily until day six",proliferative effect on L6 rat skeletal muscle cells in a dose- and time-dependent manner
same,"time to max. proliferation rate, L6",[2]; [3],6 days
same,"time of maximum proliferative effect, L6",[2]; incubation time,three to six
